system: Digitaria sanguinalis (DIGSA); assay: Herbicidal post-emergence action (B), 1280 g/ha; type: in vivo; details: rated visually after about 3 weeks vs untreated controls
Summary of the method: (§1)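 Post-emergence greenhouse test: weeds in sandy loam treated at the one-leaf stage, 2 to 3 weeks after sowing, with WP or EC formulations plus 0.5% additive at 600 l/ha water. Visual activity versus untreated controls after about 3 weeks (100% = dead, 0% = like control).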

SMILES	herbicidal activity DIGSA [%]
COc1ccccc1-c1nc2ncsc2cc1C [Example I-124]	100

system: Amaranthus retroflexus (AMARE); assay: Herbicidal post-emergence action (B), 1280 g/ha; type: in vivo; details: rated visually after about 3 weeks vs untreated controls
Summary of the method: as §1

SMILES	herbicidal activity AMARE [%]
COc1ccccc1-c1nc2ncsc2cc1C [Example I-124]	90
Cc1cc2scnc2nc1-c1sccc1C [Example I-143]	100
Fc1ccccc1-c1nc2ncsc2cc1I [Example I-188]	100
Cc1cc2scnc2nc1-c1ccsc1C [Example I-194]	100

system: Echinochloa crus-galli (ECHCG); assay: Herbicidal post-emergence action (B), 1280 g/ha; type: in vivo; details: rated visually after about 3 weeks vs untreated controls
Summary of the method: as §1

SMILES	herbicidal activity ECHCG [%]
COc1ccccc1-c1nc2ncsc2cc1C [Example I-124]	90
Cc1cc2scnc2nc1-c1sccc1C [Example I-143]	100
Fc1ccccc1-c1nc2ncsc2cc1I [Example I-188]	90
Cc1cc2scnc2nc1-c1ccsc1C [Example I-194]	100

system: Stellaria media (STEME); assay: Herbicidal post-emergence action (B), 1280 g/ha; type: in vivo; details: not given
Summary of the method: as §1

SMILES	herbicidal effect STEME [%]
COc1ccccc1-c1nc2ncsc2cc1C [Example I-124]	100
Cc1cc2scnc2nc1-c1sccc1C [Example I-143]	100
Fc1ccccc1-c1nc2ncsc2cc1I [Example I-188]	90
Cc1cc2scnc2nc1-c1ccsc1C [Example I-194]	100

system: Lolium rigidum (LOLRI); assay: Herbicidal post-emergence action (B), 1280 g/ha; type: in vivo; details: one-leaf stage, rated after about 3 weeks vs untreated controls, 100% activity = the plants have died, 0% = like control plants
Summary of the method: as §1

SMILES	LOLRI, activity rated visually (%)
Cc1cc2scnc2nc1-c1sccc1C [Example I-143]	100
Fc1ccccc1-c1nc2ncsc2cc1I [Example I-188]	90
Cc1cc2scnc2nc1-c1ccsc1C [Example I-194]	100

system: Veronica persica (VERPE); assay: Herbicidal post-emergence action (B), 1280 g/ha; type: in vivo; details: not given
Summary of the method: as §1

SMILES	herbicidal effect VERPE [%]
COc1ccccc1-c1nc2ncsc2cc1C [Example I-124]	100
Cc1cc2scnc2nc1-c1sccc1C [Example I-143]	100
Cc1cc2scnc2nc1-c1ccsc1C [Example I-194]	100

system: Amaranthus retroflexus (AMARE); assay: Herbicidal pre-emergence action (C), 320 g/ha; type: in vivo; details: ca. 3 weeks
Summary of the method: (§2)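 Sandy loam pots, seeds covered with soil → WP/EC compound sprayed on soil surface (aq., +0.5% additive, 600 l/ha) → greenhouse, optimum growth → visual herbicidal effect (%) at ca. 3 wk vs untreated.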

SMILES	herbicidal effect AMARE [%]
COc1ccccc1-c1nc2ncsc2cc1C [Example I-124]	90
Cc1cc2scnc2nc1-c1sccc1C [Example I-143]	90
Fc1ccccc1-c1nc2ncsc2cc1I [Example I-188]	90
Cc1cc2scnc2nc1-c1ccsc1C [Example I-194]	90

system: Echinochloa crus-galli (ECHCG); assay: Herbicidal pre-emergence action (C), 320 g/ha; type: in vivo; details: ca. 3 weeks
Summary of the method: as §2

SMILES	herbicidal effect ECHCG [%]
COc1ccccc1-c1nc2ncsc2cc1C [Example I-124]	100
Cc1cc2scnc2nc1-c1sccc1C [Example I-143]	100
Fc1ccccc1-c1nc2ncsc2cc1I [Example I-188]	100
Cc1cc2scnc2nc1-c1ccsc1C [Example I-194]	100

system: Alopecurus myosuroides (ALOMY); assay: Herbicidal pre-emergence action (C), 320 g/ha; type: in vivo; details: ca. 3 weeks
Summary of the method: as §2

SMILES	herbicidal effect ALOMY [%]
COc1ccccc1-c1nc2ncsc2cc1C [Example I-124]	100
Cc1cc2scnc2nc1-c1sccc1C [Example I-143]	100
Fc1ccccc1-c1nc2ncsc2cc1I [Example I-188]	100
Cc1cc2scnc2nc1-c1ccsc1C [Example I-194]	100

system: Lolium rigidum (LOLRI); assay: Herbicidal pre-emergence action (C), 320 g/ha; type: in vivo; details: ca. 3 weeks
Summary of the method: as §2

SMILES	herbicidal effect LOLRI [%]
COc1ccccc1-c1nc2ncsc2cc1C [Example I-124]	100
Cc1cc2scnc2nc1-c1sccc1C [Example I-143]	100
Fc1ccccc1-c1nc2ncsc2cc1I [Example I-188]	100
Cc1cc2scnc2nc1-c1ccsc1C [Example I-194]	100

system: Setaria viridis (SETVI); assay: Herbicidal pre-emergence action (C), 320 g/ha; type: in vivo; details: ca. 3 weeks
Summary of the method: as §2

SMILES	herbicidal effect SETVI [%]
COc1ccccc1-c1nc2ncsc2cc1C [Example I-124]	100
Cc1cc2scnc2nc1-c1sccc1C [Example I-143]	100
Fc1ccccc1-c1nc2ncsc2cc1I [Example I-188]	100
Cc1cc2scnc2nc1-c1ccsc1C [Example I-194]	100

system: Veronica persica (VERPE); assay: Herbicidal pre-emergence action (C), 320 g/ha; type: in vivo; details: ca. 3 weeks
Summary of the method: as §2

SMILES	herbicidal effect VERPE [%]
COc1ccccc1-c1nc2ncsc2cc1C [Example I-124]	90
Cc1cc2scnc2nc1-c1sccc1C [Example I-143]	90
Fc1ccccc1-c1nc2ncsc2cc1I [Example I-188]	90
Cc1cc2scnc2nc1-c1ccsc1C [Example I-194]	80

system: Digitaria sanguinalis (DIGSA); assay: Herbicidal pre-emergence action (C), 320 g/ha; type: in vivo; details: ca. 3 weeks
Summary of the method: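 Weed and crop seeds sown in sandy loam; WP or EC formulations applied pre-emergence to the soil surface as aqueous suspension/emulsion with 0.5% additive at 600 l water/ha. Greenhouse-grown under optimum conditions; damage visually scored after ca. 3 weeks versus untreated controls (0% = as control, 100% = plants dead).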

SMILES	herbicidal effect DIGSA [%]
COc1ccccc1-c1nc2ncsc2cc1C [Example I-124]	100

system: Digitaria sanguinalis (DIGSA); assay: Herbicidal pre-emergence action (A), 1280 g/ha; type: in vivo; details: visual grading after ca. 3 weeks vs untreated controls, 100% = plants have died off, 0% = as control plants
Summary of the method: (§3)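 Pre-emergence greenhouse test: seeds sown in sandy loam pots, WP or EC formulations sprayed onto covering soil as aqueous suspension/emulsion with 0.5% additive at 600 l water/ha. Damage graded visually after ca. 3 weeks versus untreated controls, 0% = as control, 100% = plants dead.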

SMILES	DIGSA, herbicidal effect in percent (%)
COc1ccccc1-c1nc2ncsc2cc1C [Example I-124]	100

system: Amaranthus retroflexus (AMARE); assay: Herbicidal pre-emergence action (A), 1280 g/ha; type: in vivo; details: visual grading after ca. 3 weeks vs untreated controls
Summary of the method: as §3

SMILES	herbicidal effect AMARE [%]
COc1ccccc1-c1nc2ncsc2cc1C [Example I-124]	100
Cc1cc2scnc2nc1-c1sccc1C [Example I-143]	90
Cc1cc2scnc2nc1-c1ccsc1C [Example I-194]	100

system: Abutilon theophrasti (ABUTH); assay: Herbicidal pre-emergence action (A), 1280 g/ha; type: in vivo; details: visual grading after ca. 3 weeks vs untreated controls, 100% = plants have died off, 0% = as control plants
Summary of the method: as §3

SMILES	ABUTH, herbicidal effect in percent (%)
COc1ccccc1-c1nc2ncsc2cc1C [Example I-124]	100
Cc1cc2scnc2nc1-c1sccc1C [Example I-143]	90

system: Echinochloa crus-galli (ECHCG); assay: Herbicidal pre-emergence action (A), 1280 g/ha; type: in vivo; details: visual grading after ca. 3 weeks vs untreated controls, 100% = plants have died off, 0% = as control plants
Summary of the method: as §3

SMILES	ECHCG, herbicidal effect in percent (%)
COc1ccccc1-c1nc2ncsc2cc1C [Example I-124]	100
Cc1cc2scnc2nc1-c1sccc1C [Example I-143]	100
Fc1ccccc1-c1nc2ncsc2cc1I [Example I-188]	100
Cc1cc2scnc2nc1-c1ccsc1C [Example I-194]	100

system: Kochia scoparia (KCHSC; Bassia scoparia); assay: Herbicidal pre-emergence action (A), 1280 g/ha; type: in vivo; details: visual grading after ca. 3 weeks vs untreated controls
Summary of the method: as §3

SMILES	herbicidal effect KCHSC [%]
COc1ccccc1-c1nc2ncsc2cc1C [Example I-124]	100
Cc1cc2scnc2nc1-c1sccc1C [Example I-143]	90
Fc1ccccc1-c1nc2ncsc2cc1I [Example I-188]	90
Cc1cc2scnc2nc1-c1ccsc1C [Example I-194]	100

system: Stellaria media (STEME); assay: Herbicidal pre-emergence action (A), 1280 g/ha; type: in vivo; details: visual grading after ca. 3 weeks vs untreated controls
Summary of the method: as §3

SMILES	herbicidal effect STEME [%]
COc1ccccc1-c1nc2ncsc2cc1C [Example I-124]	100
Cc1cc2scnc2nc1-c1sccc1C [Example I-143]	90
Fc1ccccc1-c1nc2ncsc2cc1I [Example I-188]	90
Cc1cc2scnc2nc1-c1ccsc1C [Example I-194]	100

system: Alopecurus myosuroides (ALOMY); assay: Herbicidal pre-emergence action (A), 1280 g/ha; type: in vivo; details: visual grading after ca. 3 weeks vs untreated controls, 100% = plants have died off, 0% = as control plants
Summary of the method: as §3

SMILES	ALOMY, herbicidal effect in percent (%)
COc1ccccc1-c1nc2ncsc2cc1C [Example I-124]	100
Cc1cc2scnc2nc1-c1sccc1C [Example I-143]	100
Fc1ccccc1-c1nc2ncsc2cc1I [Example I-188]	100
Cc1cc2scnc2nc1-c1ccsc1C [Example I-194]	100

system: Matricaria inodora (MATIN); assay: Herbicidal pre-emergence action (A), 1280 g/ha; type: in vivo; details: visual grading after ca. 3 weeks vs untreated controls
Summary of the method: as §3

SMILES	herbicidal effect MATIN [%]
COc1ccccc1-c1nc2ncsc2cc1C [Example I-124]	100
Cc1cc2scnc2nc1-c1sccc1C [Example I-143]	90
Fc1ccccc1-c1nc2ncsc2cc1I [Example I-188]	90
Cc1cc2scnc2nc1-c1ccsc1C [Example I-194]	100

system: Lolium rigidum (LOLRI); assay: Herbicidal pre-emergence action (A), 1280 g/ha; type: in vivo; details: visual grading after ca. 3 weeks vs untreated controls, 100% = plants have died off, 0% = as control plants
Summary of the method: as §3

SMILES	LOLRI, herbicidal effect in percent (%)
COc1ccccc1-c1nc2ncsc2cc1C [Example I-124]	100
Cc1cc2scnc2nc1-c1sccc1C [Example I-143]	100
Fc1ccccc1-c1nc2ncsc2cc1I [Example I-188]	100
Cc1cc2scnc2nc1-c1ccsc1C [Example I-194]	100

system: Setaria viridis (SETVI); assay: Herbicidal pre-emergence action (A), 1280 g/ha; type: in vivo; details: visual grading after ca. 3 weeks vs untreated controls
Summary of the method: as §3

SMILES	herbicidal effect SETVI [%]
COc1ccccc1-c1nc2ncsc2cc1C [Example I-124]	100
Cc1cc2scnc2nc1-c1sccc1C [Example I-143]	100
Fc1ccccc1-c1nc2ncsc2cc1I [Example I-188]	100
Cc1cc2scnc2nc1-c1ccsc1C [Example I-194]	100

system: Poa annua (POAAN); assay: Herbicidal pre-emergence action (A), 1280 g/ha; type: in vivo; details: visual grading after ca. 3 weeks vs untreated controls, 100% = plants have died off, 0% = as control plants
Summary of the method: as §3

SMILES	POAAN, herbicidal effect in percent (%)
COc1ccccc1-c1nc2ncsc2cc1C [Example I-124]	100
Cc1cc2scnc2nc1-c1sccc1C [Example I-143]	100
Fc1ccccc1-c1nc2ncsc2cc1I [Example I-188]	100
Cc1cc2scnc2nc1-c1ccsc1C [Example I-194]	100

system: Veronica persica (VERPE); assay: Herbicidal pre-emergence action (A), 1280 g/ha; type: in vivo; details: visual grading after ca. 3 weeks vs untreated controls
Summary of the method: as §3

SMILES	herbicidal effect VERPE [%]
COc1ccccc1-c1nc2ncsc2cc1C [Example I-124]	100
Cc1cc2scnc2nc1-c1sccc1C [Example I-143]	100
Fc1ccccc1-c1nc2ncsc2cc1I [Example I-188]	90
Cc1cc2scnc2nc1-c1ccsc1C [Example I-194]	100

Source: patent publication US20230151025A1, “SUBSTITUTED THIAZOLOPYRIDINES, SALTS THEREOF AND THEIR USE AS HERBICIDALLY ACTIVE SUBSTANCES” (Bayer Aktiengesellschaft, priority 2020, published 2023)
